Test results published in patent publication US7973162B2, “Modulators of muscarinic receptors” (Vertex Pharmaceuticals Incorporated, priority 2007, dated 2011).

How the values were obtained:
Type in all cases: cell-based
M2 muscarinic receptor = target: T1, M2 muscarinic receptor (Homo sapiens, UniProt P08172); experiment: Functional mobilization of intracellular calcium (FLIPR), M2-CHO cells; details: for M2 Efficacy / Emax: 100% efficacy = maximum response obtained with the Carbachol control; for EC50: CHO cells expressing M2, calcium mobilization
T1 construct: expressed in transfected cells; host or cells: CHO (M2-CHO)
T1 sequence (P08172 1-466): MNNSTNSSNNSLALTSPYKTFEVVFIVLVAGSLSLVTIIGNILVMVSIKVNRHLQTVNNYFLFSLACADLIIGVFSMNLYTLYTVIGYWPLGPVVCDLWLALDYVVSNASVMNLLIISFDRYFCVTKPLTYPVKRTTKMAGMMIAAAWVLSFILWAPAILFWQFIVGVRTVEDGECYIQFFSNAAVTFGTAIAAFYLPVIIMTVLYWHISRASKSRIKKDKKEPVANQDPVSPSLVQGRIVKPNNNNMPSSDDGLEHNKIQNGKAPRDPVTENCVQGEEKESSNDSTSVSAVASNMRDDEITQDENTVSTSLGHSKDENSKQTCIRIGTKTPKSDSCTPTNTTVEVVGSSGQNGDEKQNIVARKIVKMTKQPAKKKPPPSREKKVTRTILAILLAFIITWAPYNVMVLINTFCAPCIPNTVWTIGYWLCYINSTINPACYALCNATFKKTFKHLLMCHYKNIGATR
Protocol: (§1) Functional Mobilization of Intracellular Calcium to Determine Muscarinic Receptor Activity:
(§2) CHO cells expressing muscarinic receptors (M1 to M5) are grown as monolayers in tissue culture flasks at 37° C. in a humidified atmosphere containing 5% CO2 and passaged every 3-5 days. The growth media is Dulbecco's modified eagles medium (DMEM, Gibco Cat# 12430-054), containing 25 mM Hepes and supplemented with Fetal Bovine Serum (Hyclone, cat #SH30071.03), 0.1 mM of MEM non-essential amino acids (GIBCO, Cat #11140-050), 1 mM MEM Sodium Pyruvate (GIBCO Cat #11360-070) and 100 units/ml of Penicillin G and 100 μg/ml of Streptomycin (GIBCO Cat #15140-122). The recombinant muscarinic receptor cell lines are grown under antibiotic pressure with media containing 25 μg/ml zeocin and 500 μg/ml G418 (M1-CHO), 4 μg/ml puromycin, 50 μg/ml zeocin and 2.5 μg/ml blasticidin (M2 and M4-CHO) or 50 μg/ml zeocin and 4 μg/ml puromycin (M3 and M5-CHO).
(§3) Cells are harvested at 80-90% confluence using Versene (GIBCO Cat #15040-066), collected by centrifugation and seeded 18-24 hrs prior to running the calcium assay at a density of 5,000-10,000 cells/well in […], clear-bottomed 384-well plates (BD Biocoat, poly-D-lysine, Cat#356663). The day of the experiment, the cells are washed with a plate washer (Bioteck Instruments, ELX 405) using bath1 buffer (140-mM NaCl, 4.5-mM KCl, 2-mM CaCl2, 1-mM MgCl2, 10-mM Hepes-Na, 10-mM Glucose, pH 7.4, with NaOH) containing 1 mM Probenecid. Next, the calcium dye Fluo-3 (25 μl/well of Fluo-3 AM at 4 μM, Molecular Probes F-1241, in Bath 1 buffer containing 1 mM Probenecid) is added to the 25 μl of Bath 1 remaining in each well after the plate wash and the dye is loaded at 37° C. in the tissue culture incubator for 60-90 min. The fluorescent dye is removed using the plate washer with Bath 1 containing 1 mM Probenecid, leaving 25 μl/well of this solution after the wash. Alternatively, cells can be loaded with the calcium indicator from Molecular Devices (Calcium 3 Assay Reagents, Cat #R7181) adding 5 μl of a 5× solution dye in Bath 1 containing 1 mM Probenecid (10 ml per dye flask cat #R7182 to generate a solution 20×) to 20 μl of the same buffer. After loading for 60 min, the experiment can be run without having to remove the dye.
(§4) Compounds are prepared at a 2× fold concentration in a 96-well plate (round bottom, Costar Corning cat #3656), by reconstituting the pre-spotted compounds in bath 1 containing 1 mM probenecid. The final concentration DMSO is 0.5%, and the amount of DMSO is normalized across the assay plate. To determine an agonist action of the compounds on muscarinic receptors, the reconstituted compounds are added (25 μl compound/well) to the cell assay plate (containing 25 μl/well) using the multi-channel robotic system of the FLIPR 3 Instrument (Molecular Devices, Sunnyvale, Calif.). To determine a functional inhibitory action of the compounds on muscarinic receptors, the reconstituted compounds are added (25 μl compound/well) to the assay plate and pre-incubated for 15 min prior to adding 25 μl of Carbachol at 3× the EC80 for each muscarinic subtype. Alternatively, the compounds can be co-applied simultaneously with the agonist. In both assay modes, the fluorescence is recorded for 60 sec (excitation wavelength is […] and emission wavelength 540 nm) using the FLIPR 3 instrument.
(§5) The potency, efficacy and selectivity of the muscarinic compounds were evaluated by screening the compound activity across the whole family (M1 to M5 cells). Compounds were also screened for activity on other proteins such as other GPCRs and ion channels to determine selectivity on M4 receptors.
(§6) Examples of activities and efficacies of the muscarinic compounds of formulae (I, Ia, and Ib) on modulating M1 and M4 receptors are shown below in Table 3. […]

M4 muscarinic receptor = target: T2, M4 muscarinic receptor (Homo sapiens, UniProt P08173); experiment: Functional mobilization of intracellular calcium (FLIPR), M4-CHO cells; details: for M4 Efficacy / Emax: 100% efficacy = maximum response obtained with the Carbachol control; for EC50: CHO cells expressing M4, calcium mobilization
T2 construct: expressed in transfected cells; host or cells: CHO (M4-CHO)
T2 sequence (P08173 1-479): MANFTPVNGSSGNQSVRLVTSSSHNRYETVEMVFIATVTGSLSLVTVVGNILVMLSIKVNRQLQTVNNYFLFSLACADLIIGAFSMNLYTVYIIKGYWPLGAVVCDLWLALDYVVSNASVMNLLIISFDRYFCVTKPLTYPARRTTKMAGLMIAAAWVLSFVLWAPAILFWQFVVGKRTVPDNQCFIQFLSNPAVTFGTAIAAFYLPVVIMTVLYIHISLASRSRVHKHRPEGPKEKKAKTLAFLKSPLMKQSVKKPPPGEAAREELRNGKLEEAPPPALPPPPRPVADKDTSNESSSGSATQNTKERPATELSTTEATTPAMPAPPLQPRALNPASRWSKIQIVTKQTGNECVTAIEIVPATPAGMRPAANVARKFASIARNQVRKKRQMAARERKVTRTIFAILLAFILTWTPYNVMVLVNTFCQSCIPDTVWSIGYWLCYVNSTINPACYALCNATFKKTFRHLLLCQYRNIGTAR
Protocol: as §1, §2, §3, §4, §5, §6

M3 muscarinic receptor = target: T3, M3 muscarinic receptor (Homo sapiens, UniProt P20309); experiment: Functional mobilization of intracellular calcium (FLIPR), M3-CHO cells; details: for M3 Efficacy / Emax: 100% efficacy = maximum response obtained with the Carbachol control; for EC50: CHO cells expressing M3, calcium mobilization
T3 construct: expressed in transfected cells; host or cells: CHO (M3-CHO)
Protocol: as §1, §2, §3, §4, §5, §6

M1 muscarinic receptor = target: T4, M1 muscarinic receptor (Homo sapiens, UniProt P11229); experiment: Functional mobilization of intracellular calcium (FLIPR), M1-CHO cells; details: for M1 Efficacy / Emax: 100% efficacy = maximum response obtained with the Carbachol control; for EC50: CHO cells expressing M1, calcium mobilization
T4 construct: expressed in transfected cells; host or cells: CHO (M1-CHO)
T4 sequence (P11229 1-460): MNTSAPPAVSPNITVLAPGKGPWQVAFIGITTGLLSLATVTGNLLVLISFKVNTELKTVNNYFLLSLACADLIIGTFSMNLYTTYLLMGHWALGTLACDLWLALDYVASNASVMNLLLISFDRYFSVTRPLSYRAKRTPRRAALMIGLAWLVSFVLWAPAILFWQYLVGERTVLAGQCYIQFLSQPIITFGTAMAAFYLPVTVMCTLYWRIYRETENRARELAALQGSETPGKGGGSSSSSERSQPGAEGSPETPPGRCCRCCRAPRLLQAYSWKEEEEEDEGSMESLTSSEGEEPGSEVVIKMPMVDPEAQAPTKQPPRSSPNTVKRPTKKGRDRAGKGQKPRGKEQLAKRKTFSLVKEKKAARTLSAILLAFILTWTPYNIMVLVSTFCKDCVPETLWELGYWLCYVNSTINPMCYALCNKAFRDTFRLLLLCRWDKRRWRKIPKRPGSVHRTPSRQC
Protocol: as §1, §2, §3, §4, §5, §6

T3 sequence (P20309 whole entry): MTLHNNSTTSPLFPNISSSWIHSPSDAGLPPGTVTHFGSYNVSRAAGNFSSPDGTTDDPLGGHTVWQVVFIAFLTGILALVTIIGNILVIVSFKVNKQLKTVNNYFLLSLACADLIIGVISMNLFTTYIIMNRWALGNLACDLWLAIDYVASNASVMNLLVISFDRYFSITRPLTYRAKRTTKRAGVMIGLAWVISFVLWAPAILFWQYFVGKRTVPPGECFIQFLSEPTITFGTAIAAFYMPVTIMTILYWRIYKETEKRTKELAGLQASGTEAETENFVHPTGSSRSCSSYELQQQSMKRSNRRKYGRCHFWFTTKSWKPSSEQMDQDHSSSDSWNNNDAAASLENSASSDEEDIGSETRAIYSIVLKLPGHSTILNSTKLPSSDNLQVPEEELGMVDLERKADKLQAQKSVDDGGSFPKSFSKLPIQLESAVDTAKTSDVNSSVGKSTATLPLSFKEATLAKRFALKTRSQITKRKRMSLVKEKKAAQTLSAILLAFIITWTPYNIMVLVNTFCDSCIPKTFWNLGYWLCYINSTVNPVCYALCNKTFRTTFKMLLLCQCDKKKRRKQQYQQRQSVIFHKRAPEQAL

| Structure (SMILES) | M2 Efficacy (M2 muscarinic receptor) | EC50 (M2 muscarinic receptor) [nM] | M4 Efficacy (M4 muscarinic receptor) | EC50 (M4 muscarinic receptor) [nM] | M3 Efficacy (M3 muscarinic receptor) | EC50 (M3 muscarinic receptor) [nM] | M1 Efficacy (M1 muscarinic receptor) | EC50 (M1 muscarinic receptor) [nM] | Emax (M2 muscarinic receptor) [%] | Emax (M4 muscarinic receptor) [%] | Emax (M3 muscarinic receptor) [%] | Emax (M1 muscarinic receptor) [%] |
| --- | --- | --- | --- | --- | --- | --- | --- | --- | --- | --- | --- | --- |
| CN1C(=O)C[C@@H]2CC3(CCN(C4CCCCCC4)CC3)c3ccccc3[C@@H]21 [Compound 29] | ++ (efficacy was calculated to be from 100% to 25%) | < 2000 | ++ (efficacy was calculated to be from 100% to 25%) | < 2000 | + (efficacy was calculated to be less than 25%) | > 5000 | ++ (efficacy was calculated to be from 100% to 25%) | < 2000 |  |  |  |  |
| O=C1C[C@@H]2CC3(CCN(C[C@@H]4C[C@H]5C=C[C@H]4C5)CC3)c3ccccc3[C@@H]2N1 [Compound 25] |  | < 2000 |  | < 2000 |  | > 5000 |  | < 2000 | 25 to 100 | 25 to 100 | 25 to 100 | 25 to 100 |
| CN1C(=O)C[C@@H]2CC3(CCN(C4CCCCCC4)CC3)c3ccccc3[C@@H]21 [Compound 10] |  | > 5000 |  | < 2000 |  | > 5000 |  | 2000 to 5000 | 25 to 100 | 25 to 100 | < 25 | 25 to 100 |
| O=C1CC2CC3(CCN(C4CCCCC4)CC3)c3ccccc3C2O1 (centres unmarked) [Compound 21] |  | > 5000 |  | < 2000 |  | > 5000 |  | < 2000 | 25 to 100 | 25 to 100 | < 25 | 25 to 100 |
| CCOC(=O)N1CCC(N2CCC3(CC2)C[C@H]2CC(=O)N(CCOC)[C@H]2c2ccccc23)CC1 [Compound 1] |  | < 2000 |  | < 2000 |  | > 5000 |  | < 2000 | 25 to 100 | 25 to 100 | < 25 | 25 to 100 |
| CN1C(=O)C[C@@H]2CC3(CCN(C4CC5CCC(C5)C4)CC3)c3ccccc3[C@@H]21 (some centres unmarked) [Compound 3] | + (efficacy was calculated to be less than 25%) | < 2000 | ++ (efficacy was calculated to be from 100% to 25%) | < 2000 | + (efficacy was calculated to be less than 25%) | > 5000 | ++ (efficacy was calculated to be from 100% to 25%) | < 2000 |  |  |  |  |
| CCOC(=O)N1CCC(N2CCC3(CC2)CC2CC(=O)OC2c2ccccc23)CC1 (centres unmarked) [Compound 4] |  | < 2000 |  | < 2000 |  | > 5000 |  | < 2000 | 25 to 100 | 25 to 100 | 25 to 100 | 25 to 100 |
